Data taken from DBAASP.
In brackets after ≈: the same amount, converted by molar mass.

Tests used:
Assay in all cases: ≥ marks a high value that may be exact or a test limit, other limits are often not marked, values filed in µg/mL are converted to µM
[1] = tested on: Enterococcus faecalis PCM 2673
[2] = tested on: Staphylococcus aureus ATCC 25923
[3] = tested on: Pseudomonas aeruginosa ATCC 9027
[4] = tested on: Escherichia coli ATCC 25922
[5] = tested on: Candida albicans ATCC 10231
[6] = tested on: Pseudomonas aeruginosa ATCC 27853
[7] = tested on: Salmonella enterica subsp. enterica serovar Typhimurium ATCC 14028
[8] = tested on: Escherichia coli ML-35
[9] = tested on: Staphylococcus aureus 710A
[10] = tested on: Bacillus megaterium Bm11
[11] = tested on: Staphylococcus aureus RF122
[12] = tested on: Cronobacter sakazakii DSM 4485
[13] = tested on: Staphylococcus aureus Newman
[14] = tested on: Cronobacter muytjensii ATCC 51329
[15] = tested on: Staphylococcus aureus NCTC 8325-4
[16] = tested on: Salmonella enterica subsp. enterica serovar Typhimurium LT2
[17] = tested on: Klebsiella pneumoniae NCIMB 13218
[18] = tested on: Cronobacter sakazakii ATCC BAA-894
[19] = tested on: Cronobacter sakazakii DPC 6440
[20] = tested on: Staphylococcus aureus SA113
[21] = tested on: Staphylococcus aureus RN4220
[22] = tested on: Escherichia coli NCIMB 11843
[23] = tested on: Pseudomonas fluorescens NCIMB 9046
[24] = tested on: Salmonella enterica subsp. enterica serovar Typhimurium ATCC 14028s
[25] = tested on: Pseudomonas aeruginosa H744
[26] = tested on: Pseudomonas aeruginosa H374
[27] = tested on: Pseudomonas aeruginosa K799
[28] = tested on: Pseudomonas aeruginosa H547
[29] = tested on: Escherichia coli UB1005
[30] = tested on: Pseudomonas aeruginosa Z61
[31] = tested on: Pseudomonas aeruginosa PAO1
[32] = tested on: Staphylococcus aureus ATCC 6538P
[33] = tested on: Staphylococcus epidermidis
[34] = tested on: Escherichia coli BL21
[35] = tested on: Staphylococcus aureus ATCC BAA-41
[36] = tested on: Burkholderia cepacia ATCC 25416

Work on `CC[C@H](C)[C@H](NC(=O)[C@H](CCCCN)NC(=O)[C@H](CCCCN)NC(=O)[C@@H](NC(=O)[C@@H](NC(=O)[C@H](CC(=O)O)NC(=O)[C@H](C)NC(=O)[C@H](CC(C)C)NC(=O)CN)[C@@H](C)CC)[C@@H](C)CC)C(=O)N[C@@H](C)C(=O)N[C@@H](CCC(=O)O)C(=O)N[C@@H](CO)C(=O)N[C@@H](Cc1ccccc1)C(N)=O` [GLADIIKKIAESF] yielded an MIC [1] of at least 182 µM, an MIC [2] of 365 µM (≈ 512 µg/mL) and an MIC [3] of 365 µM (≈ 512 µg/mL). It also gave an MIC [4] of 91.1 µM (≈ 128 µg/mL) and an MIC [5] of 91.1 µM (≈ 128 µg/mL).
Compound `CC[C@H](C)[C@H](NC(=O)[C@H](C)NC(=O)[C@H](CC(=O)O)NC(=O)[C@H](Cc1ccccc1)NC(=O)[C@H](CC(C)C)NC(=O)CN)C(=O)N[C@@H](CCCCN)C(=O)N[C@@H](CCCCN)C(=O)N[C@H](C(=O)N[C@@H](C)C(=O)N[C@@H](CCC(=O)O)C(=O)N[C@@H](CO)C(=O)N[C@@H](Cc1ccccc1)C(N)=O)[C@@H](C)CC` [GLFDAIKKIAESF] has an MIC [1] of at least 89 µM, an MIC [2] of over 356 µM and an MIC [3] of 356 µM (≈ 512 µg/mL). The MIC [4] was 178 µM (≈ 256 µg/mL) and the MIC [5] was 178 µM (≈ 256 µg/mL).
For `CC[C@H](C)[C@H](NC(=O)[C@H](CCCCN)NC(=O)[C@H](CCCCN)NC(=O)[C@H](CC(C)C)NC(=O)[C@H](CC(C)C)NC(=O)CN)C(=O)NCC(=O)N[C@@H](CCCCN)C(=O)N[C@@H](CCCCN)C(=O)N[C@@H](C)C(=O)N[C@@H](CCCCN)C(=O)N[C@@H](CCCCN)C(=O)N[C@@H](C)C(=O)N[C@@H](CC(C)C)C(=O)N[C@@H](CCCCN)C(=O)N[C@@H](CCCCN)C(=O)N[C@@H](CC(C)C)C(=O)NCC(=O)N[C@@H](Cc1ccc(O)cc1)C(N)=O` [GLLKKIGKKAKKALKKLGY], the MIC [6] was 0.5 µM (≈ 1.04 µg/mL), the MIC [7] was 2 µM (≈ 4.17 µg/mL) and the MIC [8] was 0.5 µM (≈ 1.04 µg/mL). It also gave an MIC [9] of 2 µM (≈ 4.17 µg/mL) and an MIC [10] of 2 µM (≈ 4.17 µg/mL).
With `CC[C@H](C)[C@H](N)C(=O)N[C@@H](C)C(=O)N[C@@H](Cc1cnc[nH]1)C(=O)N[C@@H](CCC(N)=O)C(=O)NCC(=O)N[C@@H](CC(C)C)C(=O)N1CCC[C@H]1C(=O)N[C@@H](CCC(N)=O)C(=O)N[C@@H](CCC(=O)O)C(=O)O` [IAHQGLPQE] the MIC [11] was at least 1250 µM, the MIC [12] was at least 2500 µM and the MIC [13] was at least 1250 µM. For the same compound, the MIC [14] was at least 2500 µM, the MIC [15] was at least 1250 µM and the MIC [16] was at least 1250 µM. It also gave an MIC [17] of at least 1250 µM, an MIC [18] of at least 2500 µM and an MIC [19] of at least 312 µM. For the same compound, the MIC [20] was at least 1250 µM, the MIC [21] was at least 1250 µM and the MIC [22] was at least 1250 µM. The MIC [23] was at least 1250 µM.
`CC(C)[C@H](NC(=O)[C@H](CO)NC(=O)[C@H](CC(N)=O)NC(=O)[C@H](CC(=O)O)NC(=O)[C@H](Cc1ccccc1)NC(=O)[C@H](CO)NC(=O)CNC(=O)[C@@H](NC(=O)[C@H](CCC(N)=O)NC(=O)[C@H](CCCCN)NC(=O)[C@H](Cc1ccccc1)NC(=O)[C@H](Cc1ccccc1)NC(=O)[C@H](CO)NC(=O)[C@H](CCCCN)NC(=O)[C@H](CCCN=C(N)N)NC(=O)[C@H](Cc1c[nH]c2ccccc12)NC(=O)[C@H](CCCCN)NC(=O)[C@@H](N)CCCCN)C(C)C)C(=O)O` [KKWRKSFFKQVGSFDNSV] showed an MIC [24] of 29.2 µM (≈ 64 µg/mL), an MIC [25] of 29.2 µM (≈ 64 µg/mL) and an MIC [26] of 29.2 µM (≈ 64 µg/mL). It also gave an MIC [27] of 29.2 µM (≈ 64 µg/mL), an MIC [28] of 29.2 µM (≈ 64 µg/mL) and an MIC [29] of 29.2 µM (≈ 64 µg/mL). The MIC [30] was 29.2 µM (≈ 64 µg/mL).
Work on `CC[C@H](C)[C@H](NC(=O)[C@H](CCCCN)NC(=O)[C@H](CCCCN)NC(=O)[C@H](Cc1ccccc1)NC(=O)[C@H](CCCCN)NC(=O)[C@H](CCCCN)NC(=O)[C@H](Cc1c[nH]c2ccccc12)NC(=O)[C@@H](N)CCCCN)C(=O)NCC(=O)N[C@@H](C)C(=O)N[C@H](C(=O)N[C@@H](CC(C)C)C(=O)N[C@@H](CCCCN)C(=O)N[C@H](C(=O)N[C@@H](CC(C)C)C(=O)O)C(C)C)C(C)C` [KWKKFKKIGAVLKVL] yielded an MIC [31] of 0.707 µM (≈ 1.26 µg/mL), an MIC [32] of 16 µM (≈ 28.6 µg/mL) and an MIC [33] of 0.5 µM (≈ 0.893 µg/mL). It also gave an MIC [34] of 0.354 µM (≈ 0.632 µg/mL) and an MIC [35] of 16 µM (≈ 28.6 µg/mL).
For `CC[C@H](C)[C@H](NC(=O)[C@H](CCCCN)NC(=O)[C@H](CCCCN)NC(=O)[C@H](Cc1ccccc1)NC(=O)[C@H](CCCCN)NC(=O)[C@H](CCCCN)NC(=O)[C@H](Cc1c[nH]c2ccccc12)NC(=O)[C@@H](N)CCCCN)C(=O)NCC(=O)N[C@@H](CCCCN)C(=O)N[C@H](C(=O)N[C@@H](CC(C)C)C(=O)N[C@@H](CCCCN)C(=O)N[C@H](C(=O)N[C@@H](CC(C)C)C(=O)O)C(C)C)C(C)C` [KWKKFKKIGKVLKVL], the MIC [31] was 0.707 µM (≈ 1.3 µg/mL), the MIC [32] was 16 µM (≈ 29.5 µg/mL) and the MIC [33] was 0.25 µM (≈ 0.461 µg/mL). It also gave an MIC [34] of 0.5 µM (≈ 0.922 µg/mL) and an MIC [35] of 16 µM (≈ 29.5 µg/mL).
Compound `CC[C@H](C)[C@H](NC(=O)CNC(=O)[C@@H](NC(=O)[C@H](CCCCN)NC(=O)[C@H](CCCCN)NC(=O)[C@H](Cc1ccccc1)NC(=O)[C@H](CC(C)C)NC(=O)[C@H](CCCCN)NC(=O)[C@H](Cc1c[nH]c2ccccc12)NC(=O)[C@@H](N)CCCCN)[C@@H](C)CC)C(=O)NCC(=O)N[C@@H](C)C(=O)N[C@H](C(=O)N[C@@H](CC(C)C)C(=O)N[C@@H](CCCCN)C(=O)N[C@H](C(=O)N[C@@H](CC(C)C)C(=O)N[C@H](C(=O)N[C@H](C(=O)NCC(=O)N[C@@H](CC(C)C)C(=O)N1CCC[C@H]1C(=O)N[C@@H](C)C(=O)N[C@@H](CC(C)C)C(=O)N[C@@H](CCCCN)C(=O)N[C@@H](CC(C)C)C(=O)N[C@H](C(=O)N[C@@H](CC(C)C)C(=O)N[C@@H](CCCCN)C(=O)O)[C@@H](C)O)[C@@H](C)O)[C@@H](C)O)C(C)C)C(C)C` [KWKLFKKIGIGAVLKVLTTGLPALKLTLK] has an MIC [24] of 0.944 µM (≈ 3 µg/mL), an MIC [25] of 1.26 µM (≈ 4 µg/mL) and an MIC [27] of 1.26 µM (≈ 4 µg/mL). It also gave an MIC [28] of 1.26 µM (≈ 4 µg/mL), an MIC [36] of 20.1 µM (≈ 64 µg/mL) and an MIC [29] of 0.944 µM (≈ 3 µg/mL). The MIC [30] was 0.944 µM (≈ 3 µg/mL).
`CC[C@H](C)[C@H](NC(=O)[C@H](Cc1ccccc1)NC(=O)[C@H](CO)NC(=O)[C@H](CCCCN)NC(=O)[C@H](Cc1c[nH]c2ccccc12)NC(=O)[C@@H](N)CCCCN)C(=O)N[C@@H](CCCCN)C(=O)N[C@@H](CCCCN)C(=O)N[C@@H](CC(C)C)C(=O)N[C@H](C(=O)N[C@@H](CO)C(=O)N[C@@H](C)C(=O)N[C@@H](C)C(=O)N[C@@H](CCCCN)C(=O)N[C@@H](CCCCN)C(=O)N[C@H](C(=O)N[C@H](C(=O)N[C@H](C(=O)N[C@@H](C)C(=O)N[C@@H](C)C(=O)N[C@@H](CCCCN)C(=O)N1CCC[C@H]1C(=O)N[C@@H](CC(C)C)C(=O)N[C@H](C(=O)N[C@@H](CCCCN)C(=O)O)[C@@H](C)O)[C@@H](C)O)[C@@H](C)O)C(C)C)[C@@H](C)O` [KWKSFIKKLTSAAKKVTTAAKPLTK] gave an MIC [24] of 15.5 µM (≈ 43 µg/mL), an MIC [25] of 2.88 µM (≈ 8 µg/mL) and an MIC [26] of 2.88 µM (≈ 8 µg/mL). It also gave an MIC [27] of 23.1 µM (≈ 64 µg/mL), an MIC [28] of 5.76 µM (≈ 16 µg/mL) and an MIC [36] of 23.1 µM (≈ 64 µg/mL). For the same compound, the MIC [29] was 0.721 µM (≈ 2 µg/mL) and the MIC [30] was 8.65 µM (≈ 24 µg/mL).
